From the NIST ThermoML archive (doi:10.1021/acs.jced.8b00680)
“And” between values parts separate entries of the source, which are not always exact repeats. Identical values can stand only once.

Conditions: Liquid, Ebulliometric method (Recirculating still)

CCCCCCCCO [octan-1-ol]
Conditions	vapor or sublimation pressure [kPa]
436.67 K	40
437.67 K	40.08
443.61 K	48.62
445.86 K	52.15
450.45 K	60.03
454.35 K	67.6
457.08 K	74.25
460.31 K	81.52
463.5 K	89.16
466.8 K	97.64

CCCCCCCCCCCC [dodecane]
Conditions	vapor or sublimation pressure
453.92 K	40.08 kPa and 40 kPa
456.87 K	43.58 kPa
459.31 K	46.71 kPa
461.72 K	49.93 kPa
465.47 K	55.35 kPa
467.52 K	58.41 kPa
470.69 K	63.63 kPa
474.33 K	69.97 kPa
478.47 K	77.75 kPa

CCCCCCCCCCO [decan-1-ol]
Conditions	vapor or sublimation pressure [kPa]
469.23 K	40
469.83 K	40.03
472.98 K	44.4
475.4 K	47.97
476.8 K	50.19
479.42 K	54.07
481.36 K	57.04
484.05 K	61.26
487.9 K	67.43
491.16 K	73.44
492.56 K	76.32
494.46 K	79.92
496.88 K	85.24

CCCCCCCCCC [decane]
Conditions	vapor or sublimation pressure [kPa]
414.08 K	40
414.18 K	40
420.5 K	48.74
425.83 K	57.04
431.14 K	66.32
435.6 K	75.05
439.77 K	83.97
443.51 K	92.72
446.01 K	98.88

CCO [ethanol]
Conditions	vapor or sublimation pressure [kPa]
351.44 K	101.3

CCCCCCCO [heptan-1-ol]
Conditions	vapor or sublimation pressure [kPa]
419.4 K	40
420.4 K	40.12
423 K	44.2
426.27 K	49.44
430.35 K	56.78
433.75 K	63.5
438.22 K	73.4
441.44 K	81.04
444.34 K	88.14

CCCCCCO [hexan-1-ol]
Conditions	vapor or sublimation pressure [kPa]
402.36 K	40
403.66 K	40.02
407.89 K	48.72
413.31 K	58.84
418.35 K	69.27
421.9 K	77.4
425.15 K	85.63
427.54 K	92.07
429.19 K	99.78

CCCCCCCCCCC [undecane]
Conditions	vapor or sublimation pressure [kPa]
434.5 K	40
434.6 K	40.04
438.71 K	45.18
442.2 K	50.04
445.4 K	54.82
448.68 K	60.13
451.59 K	65.09
454.55 K	70.48
458.59 K	78.59

CCCCCCCCCCCCCC [tetradecane]
Conditions	vapor or sublimation pressure [kPa]
489.17 K	40
489.26 K	40.04
491.29 K	42.42
492.53 K	43.8
495.18 K	46.96
496.08 K	48.13
497.96 K	50.5
498.07 K	50.7

CC(C)CC(C)(C)C [2,2,4-trimethylpentane]
Conditions	vapor or sublimation pressure [kPa]
372.26 K	101.3

CCCCCO [pentan-1-ol]
Conditions	vapor or sublimation pressure [kPa]
384.45 K	40
384.85 K	40.01
392.76 K	54.41
398.11 K	66.15
400.95 K	72.93
404.59 K	82.75
407.17 K	90.21
410.73 K	101.2

CCCCCCCCC [nonane]
Conditions	vapor or sublimation pressure [kPa]
392.17 K	40
392.77 K	39.96
399.76 K	49.24
404.65 K	58.04
409.14 K	66.68
413.23 K	75.48
417.05 K	84.18
420.83 K	93.72
423.88 K	101.7
